Values of other authors, collected in patent US20260315441A1, “FORMULATIONS OF PENICILLIN AND METHODS FOR STABILIZING PENICILLIN” (VETERINARY PHARMACY CORPORATION, priority 2023, published 2026).
Read-outs that look alike come from different tables or passages of the source.

| pH of highest stability (aqueous solution) | degradation of penicillin G (at 5° C.) | degradation of penicillin G (at 37° C.) | minimum degradation pH point (aqueous solution) | stability outside of the pH range of 5-8 (pH outside 5-8) | Compound |
| --- | --- | --- | --- | --- | --- |
| 5-8 pH | 1.92 %/hour | 3.29 %/hour |  |  | CC1(C)S[C@@H]2[C@H](NC(=O)Cc3ccccc3)C(=O)N2[C@H]1C(=O)O [Penicillin G, benzylpenicillin] |
|  |  |  | 6.5 pH | very unstable | CC1(C)S[C@@H]2[C@H](NC(=O)Cc3ccccc3)C(=O)N2[C@H]1C(=O)O [Penicillin] |
